The values that follow come from patent US8445509B2, “Fused heterocyclic derivatives and use thereof” (Takeda Pharmaceutical Company Limited, priority 2008, dated 2013).

SMILES strings stand for the structures.

In test [1] the test system is Human umbilical vein-derived vascular endothelial cells (HUVEC). Briefly: Vascular endothelial cell proliferation inhibitory test (VEGF-stimulated HUVEC). Format: cell-based. The following applies: 120 h, 5 days of culture with VEGF. How it is done:
Human umbilical vein-derived vascular endothelial cells (HUVEC purchased from KURABO […] LTD.) were cultured in an incubator at 37° C., 5% carbon dioxide in a vascular endothelial cell medium (Invitrogen) containing 3% bovine fetal serum and 2.5 ng/mL basic fibroblast growth factor. To be specific, HUVEC was suspended in a vascular endothelial cell medium containing the aforementioned 3% bovine fetal serum and plated on a 96 well flat bottom plate by 50 μL (3000 cells) each well. After culture overnight, various concentrations of the test substance and 120 ng/mL of vascular endothelial growth factor (VEGF) were dissolved in a vascular endothelial cell medium containing 3% bovine fetal serum and added to each well by 50 μL. After 5 days of culture, a Cell counting kit-8 reagent (DOJINDO LABORATORIES) was added to each well by 10 μL, and the mixture was reacted in an incubator at 37° C., 5% carbon dioxide for 2-3 hr. The absorbance at 450 nm was measured by a microtiter plate reader and the cell proliferation inhibitory activity was determined. Using the absorbance with addition of a test substance at each concentration and based on the nonlinear least-squares analysis using a logistic curve of SAS system NLIN procedure, the concentration of the test substance (IC50 value) necessary for showing 50% of the value obtained without addition of the test substance was calculated.

For test [2], the target named is T1, c-Met intracellular domain protein (Homo sapiens, UniProt P08581).
T1 construct: 2.5 ng/ml of c-Met intracellular domain protein (Millipore); purchased Millipore
The experiment in a line: Hepatocyte growth factor receptor (c-Met) kinase inhibitory activity (AlphaScreen). The test is classed as biochemical. How it is done:
(§1) A test compound dissolved in dimethyl sulfoxide (DMSO) was diluted with a buffer (50 mM Tris-HCl (pH 7.5), 5 mM MgCl2, 5 mM MnCl2, 2 mM dithiothreitol, 0.01% Tween-20). To this compound solution (5 μL) was added a buffer (10 μL) containing 2.5 ng/ml of c-Met intracellular domain protein (Millipore) and 250 ng/mL of biotin labeled polypeptide biotinyl-poly-Glu:Tyr (4:1) (CIS bio International). […] The reaction solution was allowed to stand at 25° C. for 16 hrs, and the wells were counted using a plate reader (Fusion™ (PerkinElmer)). The kinase inhibitory rate (%) of the test compound was calculated by the following formula: Inhibitory rate (%)=(1−(count of test compound−blank)÷(control−blank))×100
(§2) The count of the solution reacted without addition of the compound was used as a “control”, and the count of the solution without the compound and ATP was used as a “blank”.
For orientation: Alpha assays give light when donor and acceptor beads are brought close together.

For test [3], the system named is Human gastric cancer cell line MKN-45. Briefly: Human gastric cancer cell line MKN-45 growth inhibitory test. The test is classed as cell-based. The following applies: MKN-45, 72 h, culture for 3 days. As for the experimental part: Human gastric cancer cell line MKN-45 (RIKEN BioResource Center) was cultured in RPMI1640 (Invitrogen) containing 10% bovine fetal serum in a gas incubator at 37° C., 5% CO2. MKN-45 cells were treated with trypsin/EDTA and recovered. The cells were suspended in RPMI1640 containing 0.3% bovine fetal serum, plated on a 96 well flat bottom plate at a cells density of 3000 cells/50 μL per well. After culturing overnight, various concentrations of test substance were dissolved in RPMI1640 containing 0.3% bovine fetal serum and added to each well by 50 μL. After culture for 3 days, a Cell counting kit-8 reagent (DOJINDO LABORATORIES) was added to each well by 10 μL, and reacted in an incubator at 37° C., 5% CO2 for 2-3 hr. After the reaction, the absorbance of each well at 450 nm was measured by a microtiter plate reader. The concentration of a test substance necessary for inhibiting the growth by 50% (IC50 value) was calculated using a cell proliferation rate with addition of the test substance at each concentration and according to the nonlinear regression analysis using GraphPad Prism [Sigmoidal dose response (variable slope)]. The cell proliferation rate (%) with addition of a test substance at each concentration was calculated by the following formula. As a positive control (100% growth), dimethyl sulfoxide was added instead of a test substance. As a negative control (0% growth), the compound of Reference Example 136 (WO2005/030140, Entry 104), which is a known c-Met inhibitor, was added in large excess (10 μM) instead of a test substance.

For test [4], the target named is T2, VEGFR2 intracellular domain protein (Homo sapiens, UniProt P35968).
T2 construct: made in house; host or cells: SF-21 insect cells, recombinant baculovirus BAC-VEGFR2
Briefly: Vascular endothelial growth factor receptor 2 (VEGFR2) kinase inhibitory activity (AlphaScreen). The test is classed as biochemical. How it is done:
Human vascular endothelial growth factor receptor 2 (hereinafter to be referred to as VEGFR2) gene was cloned by PCR using cDNA Libraries Human Placenta (Clontech) as a template. […] The primer base sequence is shown below.
SF-21 cells were sown at 1×10^6 cells/mL to Sf-900II SFM medium (1 L, Invitrogen) containing 10% fetal bovine serum (trace), 50 mg/L Gentamicin (Invitrogen) and 0.1% Pluronic F-68 (Invitrogen), and shaking culture was performed using a 2 L volume Erlenmeyer flask at 27° C., 100 rpm. After culturing for 24 hrs, recombinant baculovirus BAC-VEGFR2 (13.4 mL) was added to the mixture, and the mixture was further cultured for 3 days. The culture medium was centrifuged at 2,000 rpm for 5 min to give virus-infected cells. The infected cells were washed with a phosphate buffered saline (Invitrogen), centrifuged under the same conditions, and the cells were preserved at −80° C. The cryopreserved cells were thawed in ice, suspended in buffer A (50 mM Tris buffer (30 mL, pH 7.4) containing 20% glycerol, 0.15 M NaCl) supplemented with Complete Protease Inhibitor (Boehringer), and ruptured 3 times with a Polytron homogenizer (Kinematica) at 20,000 rpm for 30 sec. The ruptured medium was clarified by centrifugation at 40,000 rpm for 30 min and filtered with a 0.45 μm filter. The filtrate was passed through a column packed with Anti-FLAG M2 Affinity Gel (4 mL, Sigma) at a flow rate of about 0.5 mL/min. The column was washed with buffer A, and eluted with buffer A containing 100 μg/mL of FLAG peptide. The eluate was concentrated with Vivaspin 20 (Vivascience) having a molecular weight cut off of 30K. The buffer of this concentrate was exchanged using NAP™ 25 column (Amersham Bioscience) equilibrated with buffer A. The fractions containing intracellular domain protein of VEGFR2 were collected, glycerol was added to the final concentration of 50% and cryopreserved at −80° C.
as §1, with “50 ng/mL” for “2.5 ng/ml”, “VEGFR2” for “c-Met”, “protein” for “protein (Millipore)”
as §2

Test [5] deals with Human blood cell cancer cell line MV-4-11. The experiment in a line: Human blood cell cancer cell line MV-4-11 growth inhibitory test. Format: cell-based. Particulars: MV4-11, 72 h, culture for 3 days. How it is done: Human blood cell cancer cell line MV-4-11 (ATCC) was cultured in IMDM (Invitrogen) containing 10% bovine fetal serum in an incubator at 37° C., 5% CO2. MV-4-11 cells were treated with trypsin/EDTA and recovered. The cells were suspended in IMDM containing 10% bovine fetal serum, plated on a 96 well flat bottom plate at a cells density of 30,000 cells/50 μL per well. After culturing overnight, various concentrations of test substance were dissolved in IMDM containing 10% bovine fetal serum and added to each well by 50 μL. After culture for 3 days, a Cell counting kit-8 reagent (DOJINDO LABORATORIES) was added to each well by 10 μL, and reacted in an incubator at 37° C., 5% CO2 for 2-3 hr. After the reaction, the absorbance of each well at 450 nm was measured by a microtiter plate reader. The concentration of a test substance necessary for inhibiting the growth by 50% (IC50 value) was calculated using a cell proliferation rate with addition of the test substance at each concentration and according to the nonlinear regression analysis using GraphPad Prism [Sigmoidal dose response (variable slope)].

The target of test [6] is T3, FLT3 intracellular domain protein (Homo sapiens, UniProt P36888).
T3 construct: 7.5 ng/ml of FLT3 intracellular domain protein (Millipore); purchased Millipore
T3 sequence (P36888 564-993 limits assumed): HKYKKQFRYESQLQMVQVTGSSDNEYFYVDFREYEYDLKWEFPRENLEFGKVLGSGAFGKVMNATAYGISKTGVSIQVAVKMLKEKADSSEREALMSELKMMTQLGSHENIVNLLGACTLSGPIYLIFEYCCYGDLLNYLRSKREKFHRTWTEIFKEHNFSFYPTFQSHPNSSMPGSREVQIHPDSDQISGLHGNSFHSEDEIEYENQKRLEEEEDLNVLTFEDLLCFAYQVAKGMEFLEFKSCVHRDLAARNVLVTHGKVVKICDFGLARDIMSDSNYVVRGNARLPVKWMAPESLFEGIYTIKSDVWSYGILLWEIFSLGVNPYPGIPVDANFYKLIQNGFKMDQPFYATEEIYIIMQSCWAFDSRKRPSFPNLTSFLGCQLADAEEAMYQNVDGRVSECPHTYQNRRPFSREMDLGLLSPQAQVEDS
The experiment in a line: Fms Like Tyrosine Kinase 3 (FLT3) kinase inhibitory activity (AlphaScreen). The test is classed as biochemical. As for the experimental part: A test compound dissolved in dimethyl sulfoxide (DMSO) was diluted with a buffer (50 mM Tris-HCl (pH 7.5), 5 mM MgCl2, 5 mM MnCl2, 2 mM dithiothreitol, 0.01% Tween-20). To this compound solution (5 μL) was added a buffer (10 μL) containing 7.5 ng/ml of FLT3 intracellular domain protein (Millipore) and 250 ng/mL of biotin labeled polypeptide biotinyl-poly-Glu:Tyr (4:1) (CIS bio International). At 5 min after mixing kinase enzyme and the compound and biotin labeled polypeptide, to the obtained mixture was added a buffer (10 μL) containing ATP (5 μM), the mixture was allowed to react at 25° C. for 10 min and the reaction was quenched with 25 μL of a stop solution (100 mM EDTA disodium salt, 62.5 mM HEPES buffer (pH 7.4), 250 mM NaCl, 0.1% bovine serum albumin, 10 μg/mL AlphaScreen assay streptavidin donor beads (Streptavidin Donor Beads: PerkinElmer), 10 μg/mL AlphaScreen assay anti-phosphotyrosine recognition antibody Y-100 binding acceptor beads (Anti-phosphotyrosine (P-Tyr-100) Acceptor beads: PerkinElmer)). The reaction solution was allowed to stand at 25° C. for 16 hrs, and the wells were counted using a plate reader (Envision™ (PerkinElmer)). The kinase inhibitory rate (%) of the test compound was calculated by the following formula: Inhibitory rate (%)=(1−(count of test compound−blank)÷(control−blank))×100
as §2

The target of test [7] is T4, Tie2 intracellular domain protein (Homo sapiens, UniProt Q02763).
T4 construct: 50 ng/mL of Tie2 intracellular domain protein (Millipore); purchased Millipore
Briefly: TIE2 kinase inhibitory activity (AlphaScreen). Format: biochemical. How it is done:
A test compound dissolved in dimethyl sulfoxide (DMSO) was diluted with a buffer (50 mM Tris-HCl (pH 7.5), 5 mM MgCl2, 5 mM MnCl2, 2 mM dithiothreitol, 0.01% Tween-20). A buffer (10 μL) containing 50 ng/mL of Tie2 intracellular domain protein (Millipore) and 250 ng/ml, of biotin labeled polypeptide biotinyl-poly-Glu:Tyr (4:1) (CIS bio International) was added to the compound solution (5 μL). At 5 min from the mixing of the kinase enzyme, the compound and the biotin labeled polypeptide, a buffer (10 μL) containing 5 μM ATP was added, and the mixture was reacted at 25° C. for 10 min. The reaction was quenched by the addition of 25 μL of a stop solution (100 mM EDTA disodium salt, 62.5 mM HEPES buffer (pH 7.4), 250 mM NaCl, 0.1% bovine serum albumin, 10 μg/ml AlphaScreen assay streptavidin donor beads (Streptavidin Donor beads: PerkinElmer), 10 μg/ml, AlphaScreen assay anti-phosphotyrosine recognition antibody PT-66 binding acceptor beads (Anti-phosphotyrosine (PT-66) Acceptor beads: PerkinElmer)). The reaction solution was allowed to stand at 25° C. for 16 hrs, and the […] were counted using a plate reader (Fusion™ (PerkinElmer)). The kinase inhibitory rate (%) of the test compound was calculated by the following formula: Inhibitory rate (%)=(1−(count of test compound−blank)÷(control−blank))×100
as §2

Where [8] appears, read: 1 μM test substance, read-out: inhibitory rate (%) at 1 μM.
The mark [9] stands for this setting: 1 μM test compound, read-out: inhibitory rate (%) at 1 μM.

T1 sequence (P08581 956-1390 limits assumed): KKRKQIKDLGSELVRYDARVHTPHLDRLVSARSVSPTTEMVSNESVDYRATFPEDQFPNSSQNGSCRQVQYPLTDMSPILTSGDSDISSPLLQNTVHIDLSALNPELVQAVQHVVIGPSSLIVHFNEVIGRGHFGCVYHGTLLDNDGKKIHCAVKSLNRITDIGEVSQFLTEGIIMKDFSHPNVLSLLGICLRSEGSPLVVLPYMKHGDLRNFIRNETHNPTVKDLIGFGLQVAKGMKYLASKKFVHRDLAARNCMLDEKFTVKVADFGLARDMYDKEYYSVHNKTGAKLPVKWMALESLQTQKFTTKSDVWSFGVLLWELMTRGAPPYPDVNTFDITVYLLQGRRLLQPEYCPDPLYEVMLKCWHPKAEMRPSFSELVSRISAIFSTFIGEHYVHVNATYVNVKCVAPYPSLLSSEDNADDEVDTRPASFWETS
T2 sequence (P35968 786-1356 limits assumed): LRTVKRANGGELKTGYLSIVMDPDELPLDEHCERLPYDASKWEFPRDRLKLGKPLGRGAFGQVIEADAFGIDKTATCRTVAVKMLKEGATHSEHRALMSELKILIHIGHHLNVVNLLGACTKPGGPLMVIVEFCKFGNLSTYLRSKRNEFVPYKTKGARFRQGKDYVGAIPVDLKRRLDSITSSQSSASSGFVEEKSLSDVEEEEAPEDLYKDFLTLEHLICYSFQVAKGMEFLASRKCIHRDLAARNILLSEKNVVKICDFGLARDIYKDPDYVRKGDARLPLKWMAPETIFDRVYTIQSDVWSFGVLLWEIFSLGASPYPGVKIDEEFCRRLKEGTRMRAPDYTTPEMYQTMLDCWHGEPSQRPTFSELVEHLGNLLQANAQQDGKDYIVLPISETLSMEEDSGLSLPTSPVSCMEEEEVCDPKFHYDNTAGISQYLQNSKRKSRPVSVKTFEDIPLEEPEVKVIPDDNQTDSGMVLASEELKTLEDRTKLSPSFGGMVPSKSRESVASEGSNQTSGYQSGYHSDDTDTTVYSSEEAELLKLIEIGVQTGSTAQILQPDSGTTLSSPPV
T4 sequence (Q02763 770-1124 limits assumed): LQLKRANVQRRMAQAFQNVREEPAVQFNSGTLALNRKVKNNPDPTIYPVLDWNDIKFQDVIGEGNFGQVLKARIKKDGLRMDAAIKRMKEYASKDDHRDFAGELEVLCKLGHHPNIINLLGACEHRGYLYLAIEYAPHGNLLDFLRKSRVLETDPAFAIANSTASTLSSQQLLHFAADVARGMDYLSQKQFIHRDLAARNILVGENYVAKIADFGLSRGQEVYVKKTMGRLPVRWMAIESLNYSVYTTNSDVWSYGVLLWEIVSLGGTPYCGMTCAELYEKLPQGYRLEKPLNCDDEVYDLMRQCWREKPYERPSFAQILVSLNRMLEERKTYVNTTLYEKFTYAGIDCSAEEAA

For the compound `O=C(Nc1nc2ccc(Oc3ccc(NC(=O)C4(C(=O)Nc5ccccc5)CC4)cc3F)nc2s1)C1CC1` [Example 20, N-[4-({2-[(cyclopropylcarbonyl)amino][1,3]thiazolo[5,4-b]pyridin-5-yl}oxy)-3-fluorophenyl]-N′-phenylcyclopropane-1,1-dicarboxamide], the inhibition at 1 µM in test [1] (setting [8]) is ≥ 40%; in test [2] (setting [9]), ≥ 80%; in test [3] (setting [8]) it was ≥ 80%; in test [4] (setting [9]) it was ≥ 70%; in test [5] (setting [8]), ≥ 90%. In addition, the IC50 in test [1] was ≤ 2000 nM; in test [2] it was ≤ 1000 nM; in test [3] (read-out: IC50 value), ≤ 1000 nM; in test [4], ≤ 1000 nM; in test [5], ≤ 1000 nM.

For `Cc1ccc(C(=O)Nc2ccc(Oc3ccc4nc(NC(=O)C5CC5)cn4c3)c(F)c2)c(=O)n1-c1ccc(F)cc1` [Example 90, N-[4-({2-[(cyclopropylcarbonyl)amino]imidazo[1,2-a]pyridin-6-yl}oxy)-3-fluorophenyl]-1-(4-fluorophenyl)-6-methyl-2-oxo-1,2-dihydropyridine-3-carboxamide acetate], the IC50 in test [6] and in test [7] was ≤ 1000 nM each time.

As usually defined, the IC50 is the concentration at which inhibition is half-maximal.
